Literature values, collected in patent US20230085607A1, “IVERMECTIN COMPOSITIONS FOR TREATMENT OF COVID-19” (priority 2021, published 2023).
Like-named read-outs stand apart in the source and are kept apart here.

Tests used:
[1] = tested on: LPS-challenged macrophages; details: 0 to 50 μM, 6 h pre-incubation, LPS 24 h
[2] = tested on: LPS-stimulated primary peritoneal macrophages
[3] = tested on: mice with LPS-induced ARDS
[4] = tested on: mice challenged with endotoxin (LPS O111:B4) or live Escherichia coli; details: for concentration of IL-1 α: controls 1187.0±278.64
[5] = tested on: rats with polymicrobial sepsis (CL2P); details: 10 mg/kg intraperitoneally at 1 and 6 h after CL2P and every 12 h
[6] = tested on: mice with polymicrobial sepsis (CL2P); details: 10 mg/kg intraperitoneally, monitored 72 h after CL2P
[7] = tested on: mice with experimental colitis
[8] = tested on: mice with LPS-induced ARDS; remark: listed apart in the source
[9] = tested on: rats subjected to myocardial ischemia and reperfusion; details: 10 mg/kg intravenously then 10 mg/kg/h infusion
[10] = tested on: lipopolysaccharide-activated macrophages
[11] = tested on: mice with lethal endotoxemia or lethal sepsis
[12] = 50 mg/kg, LPS 5 mg/kg 3 days later
[13] = 50 and 100 mg/kg/day, compared with MD group

C[S+]([O-])CCCCN=C=S (centres unmarked) [sulforaphane, 1-isothiocyanato-4-(methylsulfinyl)-butane]
direct reaction with cytokines or NO [1]: neither directly reacted | expression of NO and cytokines [1]: able to prevent | HO-1 expression ([2]; LPS-stimulated Nrf2 (+/+) primary peritoneal macrophages): significantly augmented | LPS-stimulated mRNA expression, protein expression and production of TNF-alpha, IL-1beta, COX-2 and iNOS ([2]; Nrf2 (+/+) primary peritoneal macrophages, pretreatment): potently inhibited | anti-inflammatory effect ([2]; Nrf2 (−/−) primary peritoneal macrophages): attenuated | inducible nitric oxide synthase (iNOS) activity ([3]; 50 mg/kg): significantly inhibited | nuclear factor-κB protein expression ([3]; 50 mg/kg): significantly decreased | prostaglandin E2 (PGE2) production ([3]; 50 mg/kg): significantly inhibited | serum levels of interleukin-6 (IL-6) ([3]; 50 mg/kg, ELISA): significantly decreased | serum levels of tumor necrosis factor-α (TNF-α) ([3]; 50 mg/kg, ELISA): significantly decreased | lactate dehydrogenase (LDH) activity [3, 12]: significantly decreased | wet-to-dry ratio of the lungs [3, 12]: significantly decreased | cyclooxygenase-2 (COX-2) protein expression ([3]; 50 mg/kg, western blot): significantly inhibited | matrix metalloproteinase-9 (MMP-9) protein expression ([3]; 50 mg/kg, western blot): significantly inhibited | Nrf2/antioxidant response element (ARE) pathway ([3]; pre-treatment): activated

CC1=CC(=O)C(C(C)C)=CC1=O [thymoquinone]
lipopolysaccharide-induced inflammatory reactions (nitric oxide): suppressed effectively | concentration of nitric oxide (nitric oxide; lipopolysaccharide-induced): reduced significantly | concentration of IL-1 α ([4]; 0.75 mg/kg dose): 310.8 ± 70.93 pg/mL | IL-10 levels ([4]; 0.75 mg/kg, controls 5505.2±333.96): 2885.0 ± 553.98 pg/mL | concentration of IL-1 α ([4]; 1 mg/kg group): 428.3 ± 71.32 pg/mL | levels of IL-2 ([4]; P=0.0851): relatively lower | levels of TNF-α ([4]; P=0.1817): relatively lower | mortality reduction ([4]; mice, sepsis): 80-90% | renal and hepatic biomarker profiles ([4]; mice, sepsis): improved

epigallocatechin-3-gallate [EGCG]
hypotension (mean arterial blood pressure) [5]: significantly improved | survival [6]: significantly improved | colonic tissue erosion [7, 13]: attenuation | disease activity index (DAI) [7, 13]: decreased | spleen index (SI) [7, 13]: decreased | HIF-1α and STATS protein expression in the colon ([7]; mouse, in vivo): decreasing | plasma levels of IL-10 and TGF-β1 ([7]; mouse, in vivo): increasing | release of IL-6 and IL-17 ([7]; plasma): reduce | changes in blood gases ([8]; 10 mg/kg ip): decreased | expression of IκB-α ([8]; 10 mg/kg ip): increased | expression of TLR-4, MyD88, TRIF and p-p65 in the lung tissue ([8]; 10 mg/kg ip): alleviated | expression of TNF-α, IL-1β and IL-6 in the lung, serum and bronchoalveolar lavage fluid ([8]; 10 mg/kg ip): significantly decreased | expression of p65 ([8]; 10 mg/kg ip): no influence | histological lesions ([8]; 10 mg/kg ip): reduced | myeloperoxidase (MPO) activity ([8]; 10 mg/kg ip): reduced | wet-to-dry weight ratios ([8]; 10 mg/kg ip): reduced | LPS-induced ARDS ([8]; 10 mg/kg ip 1 h before LPS 10 mg/kg ip): attenuated | TNF-α-induced nuclear factor-κB (NF-κB) activity (macrophage foam cells): inhibition | TNF-α-induced downregulation of ABCA1 and decrease in cholesterol efflux to apoA1 (macrophage foam cells; pretreatment): attenuated | myeloperoxidase activity [9]: reduced | myocardial damage [9]: reduced | plasma IL-6 levels [9]: decreased | plasma creatine phosphokinase levels [9]: decreased | disappearance of inhibitor kappaB from cytosolic fraction [10]: blocked | NO production ([10]; cells cotreated with EGCG and LPS): Inhibition | activation of nuclear factor-kappaB ([10]; electrophoretic mobility shift assay): blocked | rescue from lethal sepsis ([11]; first dose 24 hours after cecal ligation and puncture): rescued | protection against lethal endotoxemia ([11]; intraperitoneal administration): protected | systemic accumulation of HMGB1, IL-6 and KC ([11]; mouse, in vivo): attenuation
